{"source": "the NIST ThermoML archive (doi:10.1016/j.jct.2016.02.025)", "key": {"[1]": {"details": "100 kPa; for speed of sound: Frequency=3 MHz, Sing-around technique in a fixed-path interferometer; for mass density: Vibrating tube method"}, "[2]": {"experiment": "refractive index (Na D-line) (dimensionless)", "details": "100 kPa, Standard Abbe refractometry"}}, "note": "± gives the expanded uncertainty stated by the source.", "data": [{"smiles": "CCCCCCCCn1cc[n+](C)c1.[Br-]", "note": "[1-methyl-3-octylimidazolium bromide]", "values": [{"measurement": "speed of sound", "setting": "[1]; 293.15 K, Liquid", "value": "1481.8 ± 2.5", "unit": "m/s"}, {"measurement": "mass density", "setting": "[1]; 293.15 K, Liquid", "value": "1179.3 ± 1.5", "unit": "kg/m3"}, {"measurement": "speed of sound", "setting": "[1]; 298.15 K, Liquid", "value": "1467.6 ± 2.5", "unit": "m/s"}, {"measurement": "mass density", "setting": "[1]; 298.15 K, Liquid", "value": "1175.69 ± 1.5", "unit": "kg/m3"}, {"measurement": "speed of sound", "setting": "[1]; 303.15 K, Liquid", "value": "1454.3 ± 2.5", "unit": "m/s"}, {"measurement": "mass density", "setting": "[1]; 303.15 K, Liquid", "value": "1172.08 ± 1.5", "unit": "kg/m3"}, {"measurement": "speed of sound", "setting": "[1]; 308.15 K, Liquid", "value": "1441.4 ± 2.5", "unit": "m/s"}, {"measurement": "mass density", "setting": "[1]; 308.15 K, Liquid", "value": "1168.54 ± 1.5", "unit": "kg/m3"}, {"measurement": "speed of sound", "setting": "[1]; 313.15 K, Liquid", "value": "1428.8 ± 2.5", "unit": "m/s"}, {"measurement": "mass density", "setting": "[1]; 313.15 K, Liquid", "value": "1165.04 ± 1.5", "unit": "kg/m3"}, {"measurement": "speed of sound", "setting": "[1]; 318.15 K, Liquid", "value": "1416.5 ± 2.5", "unit": "m/s"}, {"measurement": "mass density", "setting": "[1]; 318.15 K, Liquid", "value": "1161.52 ± 1.5", "unit": "kg/m3"}, {"measurement": "speed of sound", "setting": "[1]; 323.15 K, Liquid", "value": "1404.4 ± 2.5", "unit": "m/s"}, {"measurement": "mass density", "setting": "[1]; 323.15 K, Liquid", "value": "1157.99 ± 1.5", "unit": "kg/m3"}, {"measurement": "refractive index", "setting": "[2]; 293.15 K, Liquid", "value": "1.498 ± 0.0011"}, {"measurement": "refractive index", "setting": "[2]; 298.15 K, Liquid", "value": "1.49656 ± 0.0011"}, {"measurement": "refractive index", "setting": "[2]; 303.15 K, Liquid", "value": "1.49502 ± 0.0011"}, {"measurement": "refractive index", "setting": "[2]; 308.15 K, Liquid", "value": "1.49347 ± 0.0011"}, {"measurement": "refractive index", "setting": "[2]; 313.15 K, Liquid", "value": "1.49176 ± 0.0011"}, {"measurement": "refractive index", "setting": "[2]; 318.15 K, Liquid", "value": "1.49008 ± 0.0011"}, {"measurement": "refractive index", "setting": "[2]; 323.15 K, Liquid", "value": "1.48842 ± 0.0011"}]}, {"smiles": "CCCCn1cc[n+](C)c1.[Br-]", "note": "[1-butyl-3-methylimidazolium bromide]", "values": [{"measurement": "speed of sound", "setting": "[1]; 293.15 K, Metastable liquid", "value": "1675.2 ± 3.5", "unit": "m/s"}, {"measurement": "mass density", "setting": "[1]; 293.15 K, Metastable liquid", "value": "1293.44 ± 3.2", "unit": "kg/m3"}, {"measurement": "speed of sound", "setting": "[1]; 298.15 K, Metastable liquid", "value": "1665.7 ± 3.5", "unit": "m/s"}, {"measurement": "mass density", "setting": "[1]; 298.15 K, Metastable liquid", "value": "1290.02 ± 3.2", "unit": "kg/m3"}, {"measurement": "speed of sound", "setting": "[1]; 303.15 K, Metastable liquid", "value": "1656 ± 3.5", "unit": "m/s"}, {"measurement": "mass density", "setting": "[1]; 303.15 K, Metastable liquid", "value": "1286.59 ± 3.2", "unit": "kg/m3"}, {"measurement": "speed of sound", "setting": "[1]; 308.15 K, Metastable liquid", "value": "1646 ± 3.5", "unit": "m/s"}, {"measurement": "mass density", "setting": "[1]; 308.15 K, Metastable liquid", "value": "1283.16 ± 3.2", "unit": "kg/m3"}, {"measurement": "speed of sound", "setting": "[1]; 313.15 K, Metastable liquid", "value": "1636.1 ± 3.5", "unit": "m/s"}, {"measurement": "mass density", "setting": "[1]; 313.15 K, Metastable liquid", "value": "1279.72 ± 3.2", "unit": "kg/m3"}, {"measurement": "speed of sound", "setting": "[1]; 318.15 K, Metastable liquid", "value": "1626.7 ± 3.5", "unit": "m/s"}, {"measurement": "mass density", "setting": "[1]; 318.15 K, Metastable liquid", "value": "1276.28 ± 3.2", "unit": "kg/m3"}, {"measurement": "speed of sound", "setting": "[1]; 323.15 K, Metastable liquid", "value": "1616.8 ± 3.5", "unit": "m/s"}, {"measurement": "mass density", "setting": "[1]; 323.15 K, Metastable liquid", "value": "1272.84 ± 3.1", "unit": "kg/m3"}, {"measurement": "refractive index", "setting": "[2]; 293.15 K, Metastable liquid", "value": "1.54699 ± 0.0012"}, {"measurement": "refractive index", "setting": "[2]; 298.15 K, Metastable liquid", "value": "1.54575 ± 0.0012"}, {"measurement": "refractive index", "setting": "[2]; 303.15 K, Metastable liquid", "value": "1.54445 ± 0.0012"}, {"measurement": "refractive index", "setting": "[2]; 308.15 K, Metastable liquid", "value": "1.54312 ± 0.0012"}, {"measurement": "refractive index", "setting": "[2]; 313.15 K, Metastable liquid", "value": "1.54186 ± 0.0012"}, {"measurement": "refractive index", "setting": "[2]; 318.15 K, Metastable liquid", "value": "1.54052 ± 0.0012"}, {"measurement": "refractive index", "setting": "[2]; 323.15 K, Metastable liquid", "value": "1.53928 ± 0.0012"}]}, {"smiles": "CCCCCCn1cc[n+](C)c1.[Br-]", "note": "[3-hexyl-1-methyl-1H-imidazolium bromide]", "values": [{"measurement": "speed of sound", "setting": "[1]; 293.15 K, Liquid", "value": "1609.1 ± 2.3", "unit": "m/s"}, {"measurement": "mass density", "setting": "[1]; 293.15 K, Liquid", "value": "1227.46 ± 1.4", "unit": "kg/m3"}, {"measurement": "speed of sound", "setting": "[1]; 298.15 K, Liquid", "value": "1588.1 ± 2.3", "unit": "m/s"}, {"measurement": "mass density", "setting": "[1]; 298.15 K, Liquid", "value": "1223.74 ± 1.4", "unit": "kg/m3"}, {"measurement": "speed of sound", "setting": "[1]; 303.15 K, Liquid", "value": "1570.4 ± 2.3", "unit": "m/s"}, {"measurement": "mass density", "setting": "[1]; 303.15 K, Liquid", "value": "1220.31 ± 1.4", "unit": "kg/m3"}, {"measurement": "speed of sound", "setting": "[1]; 308.15 K, Liquid", "value": "1552.3 ± 2.3", "unit": "m/s"}, {"measurement": "mass density", "setting": "[1]; 308.15 K, Liquid", "value": "1216.69 ± 1.4", "unit": "kg/m3"}, {"measurement": "speed of sound", "setting": "[1]; 313.15 K, Liquid", "value": "1534.4 ± 2.3", "unit": "m/s"}, {"measurement": "mass density", "setting": "[1]; 313.15 K, Liquid", "value": "1213.05 ± 1.4", "unit": "kg/m3"}, {"measurement": "speed of sound", "setting": "[1]; 318.15 K, Liquid", "value": "1517.4 ± 2.3", "unit": "m/s"}, {"measurement": "mass density", "setting": "[1]; 318.15 K, Liquid", "value": "1209.41 ± 1.4", "unit": "kg/m3"}, {"measurement": "speed of sound", "setting": "[1]; 323.15 K, Liquid", "value": "1500 ± 2.3", "unit": "m/s"}, {"measurement": "mass density", "setting": "[1]; 323.15 K, Liquid", "value": "1205.58 ± 1.4", "unit": "kg/m3"}, {"measurement": "refractive index", "setting": "[2]; 293.15 K, Liquid", "value": "1.51183 ± 0.0011"}, {"measurement": "refractive index", "setting": "[2]; 298.15 K, Liquid", "value": "1.50982 ± 0.0011"}, {"measurement": "refractive index", "setting": "[2]; 303.15 K, Liquid", "value": "1.50796 ± 0.0011"}, {"measurement": "refractive index", "setting": "[2]; 308.15 K, Liquid", "value": "1.50612 ± 0.0011"}, {"measurement": "refractive index", "setting": "[2]; 313.15 K, Liquid", "value": "1.50427 ± 0.0011"}, {"measurement": "refractive index", "setting": "[2]; 318.15 K, Liquid", "value": "1.50232 ± 0.0011"}, {"measurement": "refractive index", "setting": "[2]; 323.15 K, Liquid", "value": "1.50047 ± 0.0011"}]}]}
